Reference: patent publication US20110046179A1, “NOVEL PIPERIDINE DERIVATIVES AND THEIR USE AS MONOAMINE NEUROTRANSMITTER RE-UPTAKE INHIBITORS” (priority 2006, published 2011)
Counter-ions that a name gives are not always drawn.

Experiments:
[1] = biological target: T1, serotonine (5-HT) reuptake in synaptosomes (Rattus norvegicus, UniProt P31652); assay: Inhibition of 5-HT reuptake in synaptosomes; type: biochemical; conditions: 3H-5-HT, read-out: 5-HT-uptake IC50
T1 construct: in synaptosomes as described in WO 97/16451; from tissue; host or cells: synaptosomes (brain tissue)
T1 sequence (P31652 whole entry): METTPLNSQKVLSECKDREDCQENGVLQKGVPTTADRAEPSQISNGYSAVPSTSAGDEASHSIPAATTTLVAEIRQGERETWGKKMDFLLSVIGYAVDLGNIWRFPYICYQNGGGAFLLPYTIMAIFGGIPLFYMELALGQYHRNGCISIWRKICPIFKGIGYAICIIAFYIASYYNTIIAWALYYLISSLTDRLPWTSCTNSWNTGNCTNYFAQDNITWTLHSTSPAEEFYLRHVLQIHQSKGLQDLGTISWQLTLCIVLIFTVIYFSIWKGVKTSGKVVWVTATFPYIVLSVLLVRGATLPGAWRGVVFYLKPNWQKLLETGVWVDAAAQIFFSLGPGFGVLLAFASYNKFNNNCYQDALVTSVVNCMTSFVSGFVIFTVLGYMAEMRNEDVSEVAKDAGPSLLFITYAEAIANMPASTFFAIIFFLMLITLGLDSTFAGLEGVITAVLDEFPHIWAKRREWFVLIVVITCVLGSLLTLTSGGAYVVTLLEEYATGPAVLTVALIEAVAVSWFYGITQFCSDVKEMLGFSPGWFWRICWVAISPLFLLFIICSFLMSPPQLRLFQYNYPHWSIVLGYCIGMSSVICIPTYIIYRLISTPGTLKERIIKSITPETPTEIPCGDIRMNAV
Protocol: (§1) A number of compounds were tested for their ability to inhibit the reuptake of the monoamine neurotransmitters dopamine (DA) noradrenaline (NA) and serotonine (5-HT) in synaptosomes as described in WO 97/16451.
(§2) The test values are given as IC50 (the concentration (μM) of the test substance which inhibits the specific binding of ^3H-DA, ^3H-NA, or ^3H-5-HT by 50%).

[2] = biological target: T2, noradrenaline (NA) reuptake in synaptosomes (Rattus norvegicus); assay: Inhibition of NA reuptake in synaptosomes; type: biochemical; conditions: 3H-NA, read-out: NA-uptake IC50
T2 construct: in synaptosomes as described in WO 97/16451; from tissue; host or cells: synaptosomes (brain tissue)
T2 sequence (Q63380 1-617): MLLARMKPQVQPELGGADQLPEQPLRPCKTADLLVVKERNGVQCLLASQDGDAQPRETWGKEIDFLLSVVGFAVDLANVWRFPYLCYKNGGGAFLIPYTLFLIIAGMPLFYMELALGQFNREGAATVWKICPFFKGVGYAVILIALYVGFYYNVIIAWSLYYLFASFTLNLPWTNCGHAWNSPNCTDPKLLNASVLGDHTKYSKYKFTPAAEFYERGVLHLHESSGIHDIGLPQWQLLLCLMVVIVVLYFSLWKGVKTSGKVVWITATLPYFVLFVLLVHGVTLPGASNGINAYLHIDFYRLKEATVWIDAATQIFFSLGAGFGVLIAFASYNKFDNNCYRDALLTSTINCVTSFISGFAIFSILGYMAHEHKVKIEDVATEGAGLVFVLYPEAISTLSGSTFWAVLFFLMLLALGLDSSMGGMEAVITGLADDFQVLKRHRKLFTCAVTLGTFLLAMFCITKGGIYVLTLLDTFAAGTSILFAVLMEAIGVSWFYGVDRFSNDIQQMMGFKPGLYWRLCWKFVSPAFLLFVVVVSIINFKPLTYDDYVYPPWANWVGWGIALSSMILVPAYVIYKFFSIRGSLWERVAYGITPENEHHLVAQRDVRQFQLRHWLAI
Protocol: as §1, §2

[3] = biological target: T3, dopamine (DA) reuptake in synaptosomes (Rattus norvegicus, UniProt P23977); assay: Inhibition of DA reuptake in synaptosomes; type: biochemical; conditions: 3H-DA, read-out: DA-uptake IC50
T3 construct: in synaptosomes as described in WO 97/16451; from tissue; host or cells: synaptosomes (brain tissue)
T3 sequence (P23977 whole entry): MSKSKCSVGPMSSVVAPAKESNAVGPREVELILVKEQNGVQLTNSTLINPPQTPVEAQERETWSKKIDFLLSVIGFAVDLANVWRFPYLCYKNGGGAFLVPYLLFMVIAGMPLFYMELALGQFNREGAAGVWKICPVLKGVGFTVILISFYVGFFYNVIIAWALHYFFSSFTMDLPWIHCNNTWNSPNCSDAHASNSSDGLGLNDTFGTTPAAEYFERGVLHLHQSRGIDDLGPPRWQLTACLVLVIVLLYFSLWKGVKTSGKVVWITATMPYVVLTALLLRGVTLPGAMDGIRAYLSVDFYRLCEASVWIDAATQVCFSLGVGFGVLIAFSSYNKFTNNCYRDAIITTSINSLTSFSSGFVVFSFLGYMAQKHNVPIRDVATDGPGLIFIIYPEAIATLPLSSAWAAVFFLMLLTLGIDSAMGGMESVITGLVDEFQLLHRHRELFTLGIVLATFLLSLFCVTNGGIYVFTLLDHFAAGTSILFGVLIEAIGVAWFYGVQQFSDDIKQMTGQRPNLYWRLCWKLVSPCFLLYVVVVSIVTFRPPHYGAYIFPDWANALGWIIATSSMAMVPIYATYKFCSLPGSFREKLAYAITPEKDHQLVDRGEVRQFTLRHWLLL
Protocol: as §1, §2

SMILES | melting point [°C] | IC50 [1] [nM] | IC50 [2] [nM] | IC50 [3] [nM]
Clc1ccc(CC2(COc3ccc(Cl)c(Cl)c3)CCNCC2)cc1Cl (as salt: fumarate) [Compound 5ae, 4-(3,4-Dichloro-benzyl)-4-(3,4-dichloro-phenoxymethyl)-piperidine] | 166.3 to 168.9 | – | – | –
Clc1ccc(CC2(COc3cccc(Cl)c3Cl)CCNCC2)cc1Cl [Compound 5ad, 4-(3,4-Dichloro-benzyl)-4-(2,3-dichloro-phenoxymethyl)-piperidine] | 93.9 to 94.6 | – | – | –
OCC1(Cc2ccc(Cl)c(Cl)c2)CCNCC1 [Compound 5a, [4-(3,4-Dichloro-benzyl)-piperidin-4-yl]-methanol] | 147.7 to 148.7 | – | – | –
COCC1(Cc2cccc(Cl)c2Cl)CCNCC1 (as salt: fumarate) [Compound 5ba, 4-(2,3-Dichloro-benzyl)-4-methoxymethyl-piperidine] | 167 to 168.4 | – | – | –
COCC1(Cc2ccc(Cl)c(Cl)c2)CCNCC1.O=C(O)/C=C/C(=O)O [Compound 5aa, 4-(3,4-Dichloro-benzyl)-4-methoxymethyl-piperidine fumaric acid salt] | 158.1 to 162.2 | 22 | 480 | 1600
CCOCC1(Cc2ccc(Cl)c(Cl)c2)CCNCC1.O=C(O)/C=C/C(=O)O | 147.4 to 150.6 | – | – | –

Now from value to molecule, other results behind:

melting point [°C] | SMILES | IC50 [1] [nM] | IC50 [2] [nM] | IC50 [3] [nM]
77.7 to 79.3 | Clc1ccc(OCC2(Cc3ccccc3)CCNCC2)cc1Cl [Compound 5ce, 4-Benzyl-4-(3,4-dichloro-phenoxymethyl)-piperidine] | 0.26 | 4.8 | 6
165 to 167 | Clc1ccc(CC2(COc3ccccc3)CCNCC2)cc1Cl (as salt: fumarate) [Compound 5ac, 4-(3,4-Dichloro-benzyl)-4-phenoxymethyl-piperidine] | – | – | –
139 to 142 | COCC1(Cc2ccc3ccccc3c2)CCNCC1 (as salt: fumarate) [Compound 5da, 4-Methoxymethyl-4-naphthalen-2-ylmethyl-piperidine] | – | – | –
